Experimental data taken from PubChem BioAssay (NCI).
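Cells were grown in 96-well plates and exposed to each compound for 48 hours at five concentrations; endpoints were interpolated linearly between bracketing concentrations, or set to the highest concentration if not reached. At the GI50, growth is halved. TGI: concentration producing complete growth inhibition.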

Columns and labels:
Assay in all cases: DTP human tumour cell line panel, 48 h
DMS 114 small cell lung = tested on: DMS 114 small cell lung
DMS 273 small cell lung = tested on: DMS 273 small cell lung
HOP-18 NSCLC = tested on: HOP-18 NSCLC
KM20L2 colon = tested on: KM20L2 colon
LXFL 529 NSCLC = tested on: LXFL 529 NSCLC
M19-MEL melanoma = tested on: M19-MEL melanoma
RXF-631 renal = tested on: RXF-631 renal
MDA-N = tested on: MDA-N
XF 498 CNS = tested on: XF 498 CNS

SMILES | TGI (DMS 114 small cell lung) [µM] | TGI (DMS 273 small cell lung) [µM] | TGI (HOP-18 NSCLC) [µM] | TGI (KM20L2 colon) [µM] | TGI (LXFL 529 NSCLC) [µM] | TGI (M19-MEL melanoma) [µM] | TGI (RXF-631 renal) [µM] | TGI (MDA-N) [µM] | TGI (XF 498 CNS) [µM] | further results
O=C(Nc1ccccc1Br)c1cccc([N+](=O)[O-])c1O | 18 | > 48.8 | > 25.1 | 36.7 | 22.1 | 12.9 | > 100 | – | – | –
Cc1ccccc1N=Nc1c(O)[nH]c2ccccc12 | – | – | – | – | – | – | – | > 100 | – | –
C[C@H]1CC[C@@H]2[C@@H](C)[C@H]3[C@H](C[C@H]4[C@@H]5CC=C6C[C@@H](O)CC[C@]6(C)[C@H]5C[C@H](O)[C@]34C)N2C1 | – | – | – | – | – | – | – | > 100 | – | –
N#CC(C#N)=CSc1ccccc1 | 43 | 65.4 | > 100 | > 100 | > 100 | – | > 100 | – | > 100 | –
O=C(O)CCC1(Br)CCCCC(Br)C1=O (stereo not given) | > 100 | > 100 | > 100 | > 100 | > 100 | > 100 | – | – | > 100 | –
O=c1[nH]c(SCc2c(Cl)c(Cl)c(Cl)c(Cl)c2Cl)nc(=S)[nH]1 | – | – | – | – | – | – | – | > 100 | – | –
O=C(O)C1c2ccccc2C(C(=O)O)c2ccccc21 (stereo not given) | > 100 | > 100 | > 100 | > 100 | > 100 | > 100 | – | – | – | –
O=C(O)C#CCO | > 100 | > 100 | – | – | > 100 | > 100 | > 100 | – | > 100 | –
COc1ccc2c(=O)c3cc([N+](=O)[O-])ccc3n(C)c2c1 | – | – | – | – | – | – | – | > 100 | – | –
CCN(CC)C(=S)SC1CCOP(=O)(N(CCCl)CCCl)N1C (stereo not given) | 0.553 | > 79.4 | > 100 | > 100 | 19.3 | 14.8 | – | > 100 | – | –
CCc1c(Cl)nc(Cl)nc1Cl | – | – | – | – | – | – | – | 10.8 | – | –
O=c1c2ccccc2c(=O)c2c1cc(Cl)c1[nH]c3c([nH]c12)c(Cl)cc1c(=O)c2ccccc2c(=O)c13 | > 100 | > 100 | – | > 100 | – | > 100 | – | – | – | –
COc1cc([C@@H]2c3cc4c(cc3[C@H](O)[C@H]3COC(=O)[C@H]23)OCO4)cc(OC)c1OC | – | – | > 100 | – | > 100 | – | – | 0.5 | > 100 | –
N#CCC(=O)N/N=C1\C(=O)N(c2ccc(Cl)cc2)C(=O)C(=O)C1c1nc2ccccc2o1 (stereo not given) | > 100 | > 100 | > 100 | > 100 | > 100 | > 100 | > 100 | – | – | –
Clc1ccc(OC2CCO2)cc1Cl (stereo not given) | > 100 | > 100 | > 100 | > 100 | > 100 | > 100 | > 100 | – | – | –
C/C(=N/NC(=O)C(N)=O)C(CC(C(=O)Nc1ccccc1C)/C(C)=N\NC(=O)C(N)=O)C(=O)Nc1ccccc1C (stereo not given) | – | – | – | > 100 | > 100 | > 100 | – | – | – | –
O=C1/C(=C/c2ccccc2)CCC/C1=C\c1ccccc1 | 24.3 | 21.5 | 38.7 | 22.2 | 15.8 | 6.98 | 50.5 | 7.71 | – | –
COC(=O)C1CCC(Nc2cccc(C(F)(F)F)c2)=N1 (stereo not given) | > 100 | > 100 | > 100 | – | > 100 | – | > 100 | – | > 100 | –
C=CCN(/C=C1\C(=O)O[C@H](COC)[C@@]2(C)C1=C(O)C(=O)C1=C2[C@H](OC(C)=O)C[C@]2(C)C(=O)CC[C@@H]12)CC=C | – | – | – | – | – | – | – | 20 | – | GI50 (MDA-N): 5.91 µM
Cc1cc(NS(=O)(=O)c2ccc(NC(=O)c3cccc4c(Nc5ccc(S(=O)(=O)Nc6cc(C)on6)cc5)c5ccccc5nc34)cc2)no1 | > 100 | > 100 | 69.3 | > 100 | 95.5 | > 100 | – | – | 96.1 | –
CC(=O)OC1C(CCl)OC(N=[N+]=[N-])C(OC(C)=O)C1OC(C)=O (stereo not given) | > 100 | > 100 | – | > 100 | – | > 100 | > 100 | – | > 100 | –

SMILES | TGI (DMS 114 small cell lung) [µM] | TGI (DMS 273 small cell lung) [µM] | TGI (HOP-18 NSCLC) [µM] | TGI (KM20L2 colon) [µM] | TGI (LXFL 529 NSCLC) [µM] | TGI (M19-MEL melanoma) [µM] | TGI (RXF-631 renal) [µM] | TGI (MDA-N) [µM] | TGI (XF 498 CNS) [µM] | further results
CCC[CH2][Sn]([CH2]CCC)([O]C(=O)c1nccnc1N)[O]C(=O)c1nccnc1N | – | 2.12 | 3.8 | 2.95 | 0.327 | 1.49 | – | – | 2.68 | GI50 (DMS 273 small cell lung): 0.869 µM; GI50 (HOP-18 NSCLC): 2.32 µM; GI50 (KM20L2 colon): 1.59 µM; GI50 (LXFL 529 NSCLC): 0.124 µM; GI50 (XF 498 CNS): 1.38 µM
O=C(CCCc1ccccn1)c1ccccc1 | – | – | – | – | – | – | – | > 100 | – | –
CC1=C(c2cc(C(=O)Nc3ccc(Cl)c(Cl)c3)nc(N)n2)Sc2ccccc2N1 | > 100 | > 100 | > 100 | > 100 | > 100 | > 100 | – | – | > 100 | –
CCOc1ccc(N=Nc2ccc3oc(=O)c(C(=O)Nc4ccc(OC)cc4)cc3c2)cc1 | – | > 100 | – | > 100 | > 100 | 91.7 | – | – | – | –
CCOC(=O)C(=O)N=Nc1nc2c(O)c3ccccc3c(O)c2s1 | 3.39 | 9.2 | 7.06 | 32.1 | 3.3 | 1.27 | 39.9 | 3.2 | 4.46 | –
Cc1cc(C)cc(Sc2c([N+](=O)[O-])ncn2C)c1 | 34.4 | 25.8 | 14.4 | > 100 | 40.9 | 84.1 | 51.3 | – | 59.5 | –
CC[O-].Cc1ccc2cccc([O-])c2n1.Cc1ccc2cccc([O-])c2n1.Cc1ccc2cccc([O-])c2n1.[Ti+4] | > 59.3 | > 67.7 | > 92.6 | > 100 | > 49.3 | 27.7 | > 65.4 | – | 58.3 | GI50 (DMS 114 small cell lung): 21.9 µM; GI50 (DMS 273 small cell lung): > 33.3 µM; GI50 (HOP-18 NSCLC): 41.1 µM; GI50 (KM20L2 colon): > 54.2 µM; GI50 (LXFL 529 NSCLC): 24.8 µM; GI50 (M19-MEL melanoma): 14 µM; GI50 (RXF-631 renal): 18.8 µM; GI50 (XF 498 CNS): 17.3 µM
CC(C)(C)[Si](C)(C)O/N=C\c1ccc(O[Si](C)(C)C(C)(C)C)cc1 | 75.3 | > 100 | > 100 | > 100 | > 100 | > 100 | 53.5 | – | 83 | –
C[C@H]1CC(=O)C2=CCCC3(SCCCS3)[C@@H]2[C@H]1CO | > 100 | > 100 | > 100 | – | > 100 | > 100 | > 100 | – | > 100 | –
NC(=O)C(NC=O)c1ccccc1 (stereo not given) | – | – | – | – | – | – | – | > 100 | – | –
COC(=O)c1ccc([N+](=O)[O-])c(O)c1 | – | – | – | – | – | – | – | > 100 | – | –
CCC1CC(=O)N(SCC(N)C(=O)O)C1=O (stereo not given) | – | – | – | – | – | – | – | > 100 | – | –
O=C(O)CCCCn1cnc2c(=S)nc[nH]c21 | – | – | – | – | – | – | – | > 100 | – | –
CN1c2ccccc2S(=O)(=O)n2c(COc3ccc(Cl)cc3)nnc21 | – | – | – | – | – | – | – | > 100 | – | –
CN(c1ccccc1)C1C(=O)N(c2ccccc2)C1/C=C/c1ccccc1 (stereo not given) | – | > 100 | – | – | > 100 | > 100 | – | – | – | –
C=C1Oc2nc3ccccc3c(=O)n2C1(C)C | > 100 | > 100 | > 100 | > 100 | > 100 | > 100 | – | – | > 100 | –
Cc1cc(C(=O)N2CCN(Cc3ccccc3)CC2)c(C)o1 | > 100 | – | > 100 | > 100 | > 100 | > 100 | – | – | > 100 | –
O=C(NNC(=O)c1ccncc1)c1ccncc1 | – | – | – | – | – | – | – | > 100 | – | –
CC1OC(OC2CC(O)C3(CO)C4C(O)CC5(C)C(C6=CC(=O)OC6)CCC5(O)C4CCC3(O)C2)C(O)C(O)C1O (stereo not given) | – | – | – | – | – | – | – | 0.122 | – | GI50 (MDA-N): < 0.0195 µM
C=C(CS(=O)(=O)c1ccccc1)[P+](c1ccccc1)(c1ccccc1)c1ccccc1 | 58.7 | 33.4 | – | 32.8 | – | 50.4 | – | – | 28.9 | –
O=S1(=O)CS(=O)(=O)OCCCO1 | – | – | – | – | – | – | – | > 100 | – | –
